Measured values reported in patent publication US7074925B1, “N-substituted derivatives of 5-oxyiminobarbituric acid” (priority 1998, dated 2006).
Values after ≈ are worked out from the molar mass of the structure shown.

Columns and labels:
[1] = test system: Human's platelet aggregation; test: Antiaggregational properties, ADP-induced platelet aggregation; assay type: cell-based; settings: for % of inhibition of platelet aggregation: 100 μg/ml, ADP […], platelet-enriched human plasma
From the text: Human's platelet aggregation was investigated in plasma of healthy 50±3 years donors that was enriched by thrombocytes, by means of aggregometer FRM-1. […] Magnitude of a maximum non-reversible platelet aggregation in the control samples (solvent) was adopted as 100%, and that in tested samples was counted as the percentage compared to the control.

[2] = Antioxidant action, riboflavine chemiluminescence; assay type: biochemical; settings: solvent water, phosphate buffer pH 9.1
From the text: To assess a general antioxidant activity the method of riboflavine chemiluminescence was used. The test substance was introduced into a system consisted of phosphate buffer (pH 9.1), solution of riboflavine, and solution of bivalent iron sulfate. Chemiluminescence was initiated by 0.1% solution of hydrogen peroxide and registered by means of luminometer. […] Ascorbic acid was used as a reference agent.

[3] = test system: Mycobacterium tuberculosis H37RV; test: Antimicrobial action by serial dilution (MIC), M. tuberculosis; assay type: cell-based; settings: Soton medium with 10% horse serum, 72-hour cultivation at 37° C.; for MIC: Mycobacterium tuberculosis
[4] = test system: Mycobacterium smegmatis ATCC607; test: Antimicrobial action by serial dilution (MIC), M. smegmatis; assay type: cell-based; settings: for MIC: Mycolicibacterium smegmatis, ATCC607, M. smegmatis ATCC 607, medium N-1, 72-hour cultivation at 37° C.
[5] = Psychodepressive activity, behavioral score; assay type: in vivo, mice; settings: per oral 300 mg/kg, one hour after dosing; total 60, less than 40 significant
Protocol: Each parameter scores 2 points for an each mouse that had unchanged behavior. The total point sum was 60 (2×10×3 mice). Reducing score to less than 40 one hour after dosing with a substance per oral (300 mg/kg) denoted significant behavioral depression. Haloperidol was utilized as a reference agent.

[6] = Analgesic activity, tail withdrawal from radiant heat; assay type: in vivo, mice
Protocol: The time needed to draw back a tail placed under a directed source of radiant heat was estimated in a group of 3 mice. Prolongation of the response time by more than 50% after intraperitoneal dosing a substance (30 mg/kg) indicated analgesic activity. Morphine sulfate (2 mg/kg) was utilized as a reference agent.

[7] = Hypoglycemic activity after glucose load; assay type: in vivo, mice; settings: 100 mg/kg perorally, glucose 1000 mg/kg s.c.
Protocol: Test substance (100 mg/kg) was perorally administrated to fasted mice, and, immediately after that, solution of glucose (1000 mg/kg) was administrated subcutaneously. Glucose content in blood was determined in a hour by the orthotoluidine method. Reducing of glucose level by more than 20% relative to control animals indicated hypoglycemic properties. Glibenclamide (I mg/kg) was utilized as a reference agent.

[8] = Antiulcerous action, water immersion stress with immobilization; assay type: in vivo, rats; settings: 20 mg/kg perorally
Protocol: Antiulcerous activity of substances was tested on a model of experimental water immersion stress with immobilization. […] After that, gastric mucous membrane was investigated, number and sizes of ulcers were counted, ulceration index was determined (an average sum of ulcer lengths per one animal in a group).

[9] = Hepatoprotective activity, CCl4 liver damage (AlAT); assay type: in vivo, rats; settings: for AlAT: 20 mg/kg perorally 30 minutes before and 7 hours after CCl4, 24 hours, CCl4 control 0.83 ± 0.21, intact 0.27 ± 0.04; for % of reducing AlAT: 20 mg/kg perorally, relative to CCl4 control
Protocol: CCl4 dissolved in 50% olive oil (1 ml/kg) was subcutaneously administrated to rats. Test substances were administrated perorally in a dose of 20 mg/kg 30 minutes before and 7 hours after the CCL4 administration. The activity of alanine-aminotranspherase (AlAT), which is a marker enzyme of liver parenchyma damage, was assessed twenty-four hours later. Reducing of enzyme amount by more than 30% relative to the control group was considered as evidence of hepatoprotective properties of the substance.
Silymarin in a dose of 100 mg/kg was used as a reference agent.

[10] = test system: primary culture of human lymphocytes (IFN-α production); test: Interferon-inducing activity in primary culture of human lymphocytes; assay type: cell-based
Protocol: Interferon synthesis induction caused by the claimed compounds was conducted on a primary culture of human lymphocytes (it is these cells in a human organism that are the main producers of interferons). To obtain lymphocyte culture, fresh blood (within 12 hours after sampling) from healthy donors (not of group II) was used. To separate lymphocytes, heparinized blood obtained from healthy donor was centrifuged in a density gradient of ficoll-verografin of […] in order to extract a fraction of immunocompetent cells. This fraction was selected and diluted with the nutrient medium RPMI-1640, containing 5% of fetal calf serum, 0.3 mg/ml of L-glutamin, 100 un/ml of penicillin, and […] of streptomycin. The concentration of lymphocytes was considered after dying them with methylene blue and calculation of cell number in Goryaev chamber. Initial solutions of the claimed compounds were diluted with the nutrient medium RPMI-1640 so that the final concentrations of the compounds, which were obtained after introduction of lymphocyte suspension, constituted the raw: 100 μg/ml, 10 μg/ml, 1 μg/ml. The final concentration of lymphocytes in the induction mixture was 3×10^6 cell/ml.
In parallels to the test samples the following controls were done: • 1). Control of spontaneous production of interferons (IFN) by lymphocytes. • 2). […] Control of spontaneous production of interferons in presence of DMSO taken in an amount corresponding to the test samples.
Control and test samples were incubated for 24 hours at the temperature of 37° C. After incubation, the samples were centrifuged at 2,000 G to deposit cell elements, and IFN-containing supernatant was separate out of samples; then the supernatant was analyzed for the quantitative content of IFN. Cell deposition was resuspended in the previous volume of nutrient medium, coloured with vital dye trypan blue, and cell number was counted in the Goryaev chamber (as described above) to determine cytotoxic action of the compounds. The quantitative determination of content of IFN in control and test samples was conducted using the immunoenzyme test system Pro Con IF2 Plus, that is intended for determination of IFN-α, which is produced by TOO “Protein contour”. The solid-phase immunoenzyme method, utilizing horse radish peroxidase as an indicator enzyme, was used to determine the quantity of interferon in the samples. Activity of the bonded peroxidase was measured using an automatic photometer for microplates with a microprocessor at the wavelength of 450 nm.
Based on the obtained results, a calibrating curve was formed, which allows to obtain data expressed in international units (IU) of activity, using the microprocessor of the automatic photometer. The results of the analysis are expressed in IU of activity of IFN per ml in the given induction system, which contains 3×10^4 lymphocyte/ml. Each test and control point was investigated in four parallels.
Controls of immunoenzyme reaction: • 1. Control of DMSO with a nutrient medium. • 2. Control of system components (according to an instruction).
The obtained data were undergone a statistical analysis using t-criterion, and calculation of the confident interval of probability at p=0.05 was carried out. Coincidence of results in the parallel tests was analyzed.

[11] = Determination of maximal tolerable dose; assay type: in vivo; settings: oral administration, mice, observed 72 hours; 300 was the maximally utilized one
Protocol: Tested substance was introduced perorally (in dose of 300 mg/kg) through a gastric tube or intraperitoneally (in dose of 100 mg/kg) to no-breed white mice with mass 18-20 g (each tested group consisted of 3 males and 3 females). Then the mouse state was observed during 72 hours. Absence of symptoms characteristic of toxic effects, or absence of animal death during the given time allows to make a conclusion that the toxicity of the test substance is low. If acute toxicity effects are observed, the dose is reduced to find maximal tolerable dose.

[12] = test system: Herpes virus of the type I (HSV-I/Leningrad/248/88); test: Effect on Herpes virus, cytopathogenic action on Vero cells; assay type: cell-based, Herpes Simplex virus; settings: compound 100 μg/ml
Protocol: An antiviral activity was determined with respect to Herpes virus of the type I (HSV-I/Leningrad/248/88) by means of commonly accepted method. Viruses were grown on a continuous culture of Vero cells that have been received from the Bank of Cell Cultures of the Institute of Cytology of the Russian Academy of Science.
A virus in a final concentration of […] and the claimed compounds dissolved in DMSO in final concentrations of 100, 10 and 1 mg/l were added to cells that were grown on the RPMI-1640 medium with 10% fetal calf serum and placed into wells of the 96-well plate. 5 separate wells were used for each of tested concentrations of an agent. The plate was incubated during 60 minutes at 38° C. in a CO2-incubator. After the incubation, the virus was removed and then a fresh medium containing claimed compounds in used concentrations was again introduced.
Results were evaluated basing on presence of cytopathogenic action on the cells after 36 hours of incubation at 38° C. in the CO2-incubator.
The next controls were used in the experiment: • 1. Control of cell culture (capability to grow properly) • 2. Control of the virus (evaluation of capability for reproduction) • 3. Control of an antiviral activity of an antiviral drug Acyclovir • 4. Control of compounds (toxicity of compounds) • 5. Control of a solvent (DMSO) for toxicity.
To estimate a cytopathic action of the virus, a quantity of the unchanged cells was calculated in 100 visual fields formed by a special net of an eyepiece of the inverted microscope.

Nc1ncnc2c1ncn2[C@@H]1O[C@H](CO)[C@@H](O)[C@H]1O [Adenosine, reference compound]
inhibition at 5 µg/mL ([1]; Homo sapiens, Platelet, 5 μg/ml, ADP 2.5 μmol/l): 100%

O=C1O[C@H]([C@@H](O)CO)C(O)=C1O [Ascorbic acid, reference compound]
IC50, suppressing chemiluminescence by 50% [2]: 2.39 mg/L (≈ 13.6 µM)

CC(=O)Oc1ccccc1C(=O)O [Aspirin, aspirin, reference compound]
inhibition at 9 µg/mL ([1]; Homo sapiens, Platelet, 9 μg/ml, ADP 2.5 μmol/l): 100%

CC[C@@H](CO)NCCN[C@@H](CC)CO [Ethambutol]
MIC [3]: 5 mg/L (≈ 24.5 µM) | MIC [4]: 5 mg/L (≈ 24.5 µM)

O=C(CCCN1CCC(O)(c2ccc(Cl)cc2)CC1)c1ccc(F)cc1 [Haloperidol, reference compound]
Point number (behavioral depression) [5]: 27

NNC(=O)c1ccncc1 [Isoniazid]
MIC [3]: 0.1 mg/L (≈ 0.729 µM) | MIC [4]: 1.5 mg/L (≈ 10.9 µM)

CN1CC[C@]23c4c5ccc(O)c4O[C@H]2[C@@H](O)C=C[C@H]3[C@H]1C5.O=S(=O)(O)O [Morphine, Morphine sulfate, reference compound]
Latent period of response, before dosing ([6]; before morphine sulfate 2 mg/kg): 8.3 | Latent period of response, 30 minutes after dosing ([6]; morphine sulfate 2 mg/kg): 14.6

CC1COc2c(N3CCN(C)CC3)c(F)cc3c(=O)c(C(=O)O)cn1c23 (stereo not drawn) [Ofloxacin]
MIC [3]: 0.5 mg/L (≈ 1.38 µM) | MIC [4]: 0.5 mg/L (≈ 1.38 µM)

CO[C@H]1/C=C/O[C@@]2(C)Oc3c(C)c(O)c4c(O)c(cc(O)c4c3C2=O)NC(=O)/C(C)=C\C=C\[C@H](C)[C@H](O)[C@@H](C)[C@@H](O)[C@@H](C)[C@H](OC(C)=O)[C@@H]1C [Rifamycin]
MIC [3]: 0.05 mg/L (≈ 0.0717 µM) | MIC [4]: 0.25 mg/L (≈ 0.358 µM)

[H]/N=C(/N)N[C@H]1[C@H](O)[C@@H](O)[C@H](O[C@@H]2O[C@@H](C)[C@](O)(C=O)[C@H]2O[C@@H]2O[C@@H](CO)[C@H](O)[C@@H](O)[C@@H]2NC)[C@@H](N/C(N)=N\[H])[C@@H]1O [Streptomycin]
MIC [3]: 0.2 mg/L (≈ 0.344 µM) | MIC [4]: 0.15 mg/L (≈ 0.258 µM)

O=C1NC(=O)N(C2CCCCC2)C(=O)C1=NO [VIII]
% change of glucose relative to glucose control [7]: −18% | Glucose in blood ([7]; after one hour, glucose control 8.26 ± 0.50): 6.77 ± 0.61 mmol/L | % of animals with ulcers ([8]; rats, 4 hours stress, control 100): 100% | % of reducing number of ulcers ([8]; versus control): −64% | % of reducing ulceration index ([8]; versus control): −35% | Number of lesions ([8]; control 8.3 ± 2.5): 3.0 ± 1.3 | ulceration index ([8]; control 10.5 ± 5.7): 6.8 ± 4.4 | % of inhibition of platelet aggregation [1]: 68.9 ± 5.3% | AlAT [9]: 0.48 ± 0.19 mmol/L/h | % of reducing AlAT [9]: −42%

CN1C(=O)C(=NO)C(=O)N(C)C1=S [XL]
MIC, M. tuberculosis [3]: 12.5 mg/L (≈ 62.1 µM) | Content of IFN in induction mixture after 24-hour incubation ([10]; substance 1 mg/l): 5.1 ± 1.0 IU/3 × 10^4 lymph./ml | Content of IFN in induction mixture after 24-hour incubation ([10]; substance 10 mg/l): 11.3 ± 1.5 IU/3 × 10^4 lymph./ml | Content of IFN in induction mixture after 24-hour incubation ([10]; substance 100 mg/l): 22.8 ± 1.0 IU/3 × 10^4 lymph./ml | MIC, M. smegmatis [4]: 3.1 mg/L (≈ 15.4 µM)

O=C1NC(=O)N(c2ccc(Br)cc2)C(=O)C1=NO [XXIX]
% of inhibition of platelet aggregation [1]: 16.4 ± 3.1% | Point number (behavioral depression) [5]: 32 | Maximal tolerable dose, concentration of test substances [11]: 300 mg/kg | AlAT [9]: 0.40 ± 0.04 mmol/L/h | % of reducing AlAT [9]: −52% | Quantity of the unchanged cells (number of cells in 100 visual fields) ([12]; Vero cells, 36 hours, cell control 10000): 3000 | percentage of protection of cells from virus ([12]; compared to the control of cell culture): (30%)

O=C1NC(=O)N(c2cccc(F)c2)C(=O)C1=NO [XXVI]
Maximal tolerable dose, concentration of test substances [11]: 300 mg/kg
